Results on 5 molecules are retold here after patent publication US20040259925A1, “Pharmaceutical compositions and methds for the prevention or treatment of cardiovascular, cardiopulmonary, pulmonary or renal diseases” (Boehringer Ingelheim Pharma GmbH & Co. KG, priority 2003, published 2004).

SMILES strings stand for the structures.

The nature of data set [1]: Dissolution of active substances from Tablet 3. Format: physicochemical. An excerpt: This combination of active substances and excipients was then compressed with a suitable tablet press (e.g. Korsch EK0 or Fette P1200) to form tablets.
Data set [2] deals with T1, human PPARgamma-ligand binding domain (LBD) (Homo sapiens, UniProt P37231).
T1 construct: codes for the amino acids 205-505 of the human PPARgamma2 transcription factor; made in house; host or cells: E. coli BL21(DE3), vector pGEX-4T-1
T1 sequence (P37231 205-505): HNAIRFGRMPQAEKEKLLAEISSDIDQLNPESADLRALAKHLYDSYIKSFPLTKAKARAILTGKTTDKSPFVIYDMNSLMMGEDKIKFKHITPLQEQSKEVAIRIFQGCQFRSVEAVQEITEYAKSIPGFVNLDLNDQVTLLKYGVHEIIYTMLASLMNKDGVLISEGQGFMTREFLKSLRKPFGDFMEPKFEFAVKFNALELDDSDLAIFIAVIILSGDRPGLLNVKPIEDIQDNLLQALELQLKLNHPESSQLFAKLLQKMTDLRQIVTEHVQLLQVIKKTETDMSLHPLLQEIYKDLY
Description: AlphaScreen: recruiting of biotinylated LXXLL peptide of cofactor CBP by GST-PPARgamma-LBD. Format: biochemical. To be noted: for direct activation of the PPARgamma-LBD / recruiting of the LXXLL peptide: concentrations of up to 50 μM; for MW (AlphaScreen signal): 4 hours. Here is the method: Protein containing the human PPARgamma-ligand binding domain (LBD) was prepared as a GST fusion protein in E. coli and purified by affinity chromatography. […] The fusion protein was expressed in the E. coli strain BL21(DE3) recommended for pGEX vectors after induction with 0.2 mM IPTG for 4 hours at 25° C. The bacteria were pelleted after the induction and frozen in batches in PBS, pH 7.4. After opening up in a French Press, the dissolved GST-PPARgamma-LBD-fusion protein was purified using a GSTrap column (Pharmacia). Elution was carried out by the addition of 20 mM reduced glutathione. The GST-PPARgamma-LBD-protein fractions were desalinated using a HiTrap desalting column (Pharmacia) and the protein concentration was determined using a standard assay.
The assay buffer consisted of 25mM Hepes pH7.4, 100 mM NaCl, 1 mM DTT, 0.1% Tween-20, 0.1% BSA. […] The final DMSO concentration in the assay was 1% (v/v). A 1% DMSO solution was used as the background control (NSB). The measurement was done using a Packard fusion measuring device.
Background: In Alpha technology, singlet oxygen from a donor bead excites a nearby acceptor bead.

In data set [3] the target is T2, ligand binding domain of the human PPARgamma2 transcription factor fused to yeast GAL4 DNA binding domain (Homo sapiens, UniProt P37231).
T2 construct: codes for amino acids 205-505 of the human PPARgamma2 transcription factor; expressed in transfected cells
T2 sequence (P37231 205-505): T1 sequence (P37231 205-505)
Briefly: Luciferase activity in stably transformed PPARgamma reporter cell line (CHO-K1 clone 11). Format: cell-based. To be noted: for MW (luciferase activity): 24 hours. An excerpt:
The cells used are CHO cells which are the result of transformation with two gene constructs.
The resulting plasmid pFA-CMV/hPPARgamma2-LBD codes N-terminally of the PPARgamma-LBD in the same reading frame for a Gal4 DNA binding domain. In addition the plasmid codes for neomycin resistance.
The cell line CHO-K1 (ATCC CCL-61) was cotransfected with the plasmids pFA-CMV/hPPARgamma2-LBD and pFR-Luc (Stratagene). pFR-Luc codes for the luciferase gene under the control of a five-times repeated yeast Gal4 binding site. The transfection was carried out with lipofectamine2000 in accordance with the manufacturer's instructions.
After six days' cultivation the cells were passaged and kept in culture for another 10 days. The resulting neomycin-resistant colonies were picked out under the microscope and transferred into 96 well dishes and cultured.
The test substances were brought to 100 times the desired concentration with a suitable solvent, e.g. DMSO, and diluted 1:100 with the medium placed in the cell culture plate. The solvent used, e.g. DMSO, was used as the background control in the same concentration.
Luminescence was measured after a five minute wait using a Packard TopCount NXT. The luciferase activity was obtained by integrating the relative luciferase units (RLU) of the first ten seconds after the start of measurement.

In data set [4] the target is T3, human PPARgamma-ligand binding domain (LBD) (Homo sapiens, UniProt P37231).
T3 sequence (P37231 205-505): T1 sequence (P37231 205-505)
T3 sequence (P19793 220-461 partner): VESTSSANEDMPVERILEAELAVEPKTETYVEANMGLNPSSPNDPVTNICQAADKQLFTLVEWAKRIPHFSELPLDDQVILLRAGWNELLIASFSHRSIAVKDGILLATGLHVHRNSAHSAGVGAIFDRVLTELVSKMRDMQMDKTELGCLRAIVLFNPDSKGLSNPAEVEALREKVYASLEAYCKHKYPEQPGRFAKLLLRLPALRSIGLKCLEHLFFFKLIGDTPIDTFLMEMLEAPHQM
Description: SPA assay: displacement of 3H-labelled rosiglitazone from GST-PPARgamma-LBD. To be noted: for MW (SPA signal, bound 3H-rosiglitazone): 30 nM 3H-rosiglitazone, NSB 217, Bmax 911; for displacement of the radioactive rosiglitazone from the binding pocket: very large excesses of test substance. How it is done: Protein containing the human PPARgamma-ligand binding domain (LBD) was prepared as a GST fusion protein in E. coli and purified by affinity chromatography. To do this, a DNA section which codes for the amino acids 205-505 of the human PPARgamma2 transcription factor (cf. Genbank entry U79012) was subcloned via the additionally inserted restriction cutting sites BamH I and Xho I into the expression vector pGEX-4T-1 (Amersham) and the sequence of the section was monitored. […] The bacteria were pelleted after the induction and frozen in batches in PBS, pH 7.4. After opening up in a French Press, the dissolved GST-PPARgamma-LBD-fusion protein was purified using a GSTrap column (Pharmacia). Elution was carried out by the addition of 20 mM reduced glutathione. The GST-PPARgamma-LBD-protein fractions were desalinated using a HiTrap desalting column (Pharmacia) and the protein concentration was determined using a standard assay. Protein containing the human RXRalpha ligand binding domain (LBD) was prepared as a His tag fusion protein in E. coli and purified by affinity chromatography. To do this a DNA section which codes for the amino acids 220-461 of the human RXRalpha transcription factor (cf. Genbank entry NM_002957, nt 729-1457) was subcloned via the additionally introduced restriction cutting sites BamH I and Not I into the expression vector pET28c (Novagen) and the sequence of the section was monitored. […] The bacteria were pelleted after the expression and frozen in batches in PBS, pH 7.4. After opening up in a French Press, the dissolved His-RXRalpha-LBD-fusion protein is purified using a HiTrap chelating column (Pharmacia). Elution was carried out using a 500 mM imidazole step. The His-RXRalpha-LBD protein fractions were desalinated using a HiTrap desalting column (Pharmacia) and the protein concentration was determined using a standard assay. A description of the SPA assay format can be found in Mukherjee R et al., J Steroid Biochem Mol Biol (2002) 81:217-225. The assay buffer consisted of 20 mM Tris pH 7.5, 25 mM KCl, 10 mM DTT, 0.2% Triton X-100).
For orientation: In a radioligand displacement assay an active substance lowers the binding of a labelled ligand.

As for `NS(=O)(=O)c1cc2c(cc1Cl)NCNS2(=O)=O` [hydrochlorothiazide], the “dissolved after 30 minutes” value in data set [1] (Tablet 3, first batch, 900 ml 0.1 M HCl, 100 rpm) turned out to be 69±6.3%; in data set [1] (Tablet 3, second batch, 900 ml 0.1 M HCl, 100 rpm), 72±2.1%; in data set [1] (Tablet 3, third batch, 900 ml 0.1 M HCl, 100 rpm), 78±1.8%.
For `CCCCC1=NC2(CCCC2)C(=O)N1Cc1ccc(-c2ccccc2-c2nnn[nH]2)cc1` [irbesartan], in data set [2], the “direct activation of the PPARgamma-LBD / recruiting of the LXXLL peptide” value was “did not result in any direct activation of the PPARgamma-LBD”. Besides, the “activation of the PPARgamma pathway in the PPARgamma reporter cell line” value (“activation of the PPARgamma pathway” for short) in data set [3] was “only at higher test concentrations and to a lesser extent”. The “MW (luciferase activity)” value turned out to be 29600 RLU in data set [3] (test substance 1.00E−04 M); 3292 RLU in data set [3] (test substance 1.00E−05 M); 657 RLU in data set [3] (test substance 1.00E−06 M); 22133 RLU in data set [3] (test substance 3.00E−05 M); 1028 RLU in data set [3] (test substance 3.00E−06 M); 491 RLU in data set [3] (test substance 3.00E−07 M). Besides, the “MW (SPA signal, bound 3H-rosiglitazone)” value in data set [4] (test substance 1.00E−04 M) is listed as 510; in data set [4] (test substance 1.00E−05 M), 723; in data set [4] (test substance 1.00E−06 M), 815; in data set [4] (test substance 1.00E−07 M) it was 913; in data set [4] (test substance 3.00E−05 M), 648; in data set [4] (test substance 3.00E−06 M), 779. Also, in data set [4] (test substance 3.00E−07 M), the “MW (SPA signal, bound 3H-rosiglitazone)” value was 810. The “displacement of the radioactive rosiglitazone from the binding pocket” value (“displacement” below) in data set [4] was “no concentration-dependent displacement”.
Take `CCCCc1nc(Cl)c(CO)n1Cc1ccc(-c2ccccc2-c2nn[nH]n2)cc1` [losartan]: the “direct activation of the PPARgamma-LBD / recruiting of the LXXLL peptide” value in data set [2] is listed as “did not result in any direct activation of the PPARgamma-LBD”. Moreover, the “activation of the PPARgamma pathway” value in data set [3] is “only at higher test concentrations and to a lesser extent”. Besides, the “MW (luciferase activity)” value in data set [3] (test substance 1.00E−04 M) was 11322 RLU; in data set [3] (test substance 1.00E−05 M) it was 709 RLU; in data set [3] (test substance 1.00E−06 M), 589 RLU; in data set [3] (test substance 3.00E−05 M) it was 3271 RLU; in data set [3] (test substance 3.00E−06 M), 672 RLU; in data set [3] (test substance 3.00E−07 M), 874 RLU. Moreover, the “MW (SPA signal, bound 3H-rosiglitazone)” value is 611 in data set [4] (test substance 1.00E−04 M); 787 in data set [4] (test substance 1.00E−05 M); 901 in data set [4] (test substance 1.00E−06 M); 915 in data set [4] (test substance 1.00E−07 M); 784 in data set [4] (test substance 3.00E−05 M); 814 in data set [4] (test substance 3.00E−06 M). In addition, in data set [4] (test substance 3.00E−07 M), the “MW (SPA signal, bound 3H-rosiglitazone)” value turned out to be 835. In addition, the “displacement” value in data set [4] was “no concentration-dependent displacement”.
`CCCc1nc2c(C)cc(-c3nc4ccccc4n3C)cc2n1Cc1ccc(-c2ccccc2C(=O)[O-])cc1.[Na+]` [telmisartan sodium salt]: the “dissolved after 30 minutes” value in data set [1] (Tablet 3, first batch, 900 ml 0.1 M phosphate buffer pH 7.5, 75 rpm) was determined as 92±1.5%; in data set [1] (Tablet 3, second batch, 900 ml 0.1 M phosphate buffer pH 7.5, 75 rpm), 96±1.8%; in data set [1] (Tablet 3, third batch, 900 ml 0.1 M phosphate buffer pH 7.5, 75 rpm), 100±1.0%.
On to `CCCc1nc2c(C)cc(-c3nc4ccccc4n3C)cc2n1Cc1ccc(-c2ccccc2C(=O)O)cc1` [telmisartan, 4′-[2-n-propyl-4-methyl-6-(1-methylbenzimidazol-2-yl)-benzimidazol-1-ylmethyl]-biphenyl-2-carboxylic acid], for which the “direct activation of the PPARgamma-LBD / recruiting of the LXXLL peptide” value in data set [2] is “did not result in any direct activation of the PPARgamma-LBD”. In addition, the “MW (AlphaScreen signal)” value came to 847 in data set [2] (test substance 1.00E−05 M); 677 in data set [2] (test substance 1.00E−06 M); 606 in data set [2] (test substance 1.00E−07 M); 720 in data set [2] (test substance 3.00E−06 M); 644 in data set [2] (test substance 3.00E−07 M); 642 in data set [2] (test substance 3.00E−08 M). Besides, the “MW (AlphaScreen signal)” value in data set [2] (test substance 5.00E−05 M) is on record as 1111. Also, the “activation of the PPARgamma pathway” value in data set [3] is given as “particularly potent activation”. For the same molecule, the “MW (luciferase activity)” value was 61397 RLU in data set [3] (test substance 1.00E−05 M); 2859 RLU in data set [3] (test substance 1.00E−06 M); 58790 RLU in data set [3] (test substance 3.00E−05 M); 24498 RLU in data set [3] (test substance 3.00E−06 M); 760 RLU in data set [3] (test substance 3.00E−07 M). The “MW (SPA signal, bound 3H-rosiglitazone)” value in data set [4] (test substance 1.00E−04 M) amounted to 545; in data set [4] (test substance 1.00E−05 M) it was 703; in data set [4] (test substance 1.00E−06 M) it was 818; in data set [4] (test substance 1.00E−07 M) it was 837; in data set [4] (test substance 3.00E−05 M) it was 691; in data set [4] (test substance 3.00E−06 M), 818. For the same molecule, in data set [4] (test substance 3.00E−07 M), the “MW (SPA signal, bound 3H-rosiglitazone)” value is recorded as 802. Further, the “displacement” value in data set [4] was “no concentration-dependent displacement”.
